The source of these data is patent US4395405A, “Alkyl-ketohexopyranoside derivatives and method of use” (Hisamitsu Pharmaceutical Co., Inc., priority 1979, dated 1983).

What is called LD50 is the dose at which mortality reaches 50%. Read a high LD50 as lower toxicity.

The test system of data set [1] is IgE antibodies. The data set is described as follows: Formation of homocytotropic antibodies in mice, PCA reaction. The class given is in vivo, mice (BALB/c strain), female. Conditions: 100 mg/Kg/day for 5 days. Here is the method: The collected serum was diluted in various concentrations and intradermally injected to other rats. Forty-eight (48) hours after the injection, 2 mg of DNP-As as protein and 0.5 ml of a 1% Evans Blue were intravenously injected into these rats to determine the dilution of the serum which induced the minimum extravasted dye. It should be noted that the symbols "*" and "**" in the following Tables indicate significant differences at risks of 5% and 1%, respectively.
(§1) Effects on the formation of homocytotropic antibodies in mice
(§2) Groups each consisting of 5 female mice (BALB/c strain) were used in this experiment. The mice were sensitized with 10 μg of DNP-As as protein and 3 mg of Al(OH)3, after which the test compound was administered to the sensitized mice for 5 days (at a dose of 100 mg/Kg/day). After the sensitization, a sample of serum was collected from the mice and treated in the same manner as in Experiment 1 to determine the amount of antibodies formed. […]

Data set [2] has as its system IgE antibodies. Kind of data set: Formation of homocytotropic antibodies in rats, PCA (passive cutaneous anaphylaxis) reaction. The class given is in vivo, rats of wistar strain. As to the method: (§3) Effects on the formation of homocytotropic antibodies in rats
(§4) An experiment was carried out in accordance with the Tada and Okumura's method (J. Immunol., Vol. 106, p 1002, 1971).
(§5) Groups each consisting of 8-9 rats of wistar strain were used in this experiment.
(§6) As shown in Tables 2-5, to the four legs of the rats were injected 1 mg of dinitrophenylated extract of ascaris suum (DNP-As) as protein and 10^10 cells of vaccinum pertussis (B. Pertussis) for sensitization, after which the compounds of this invention were administered to the injected rats for 5 days. Eight to nine days after the sensitization, bloodletting was effected on these rats to collect their serum for estimating the amount of antibodies formed using passive cutaneous anaphylaxis (PCA) reactions and phytohemaglutinin (PHA) reactions.
(1) Estimation of the amount of antibodies by PCA reaction:
The collected serum was diluted in various concentrations and intradermally injected to other rats. Forty-eight (48) hours after the injection, 2 mg of DNP-As as protein and 0.5 ml of a 1% Evans Blue were intravenously injected into these rats to determine the dilution of the serum which induced the minimum extravasted dye. It should be noted that the symbols "*" and "**" in the following Tables indicate significant differences at risks of 5% and 1%, respectively. […]

Data set [3] has as its system IgG and IgM. The data set is described as follows: Amount of antibodies formed in rats, PHA (phytohemaglutinin) reaction. It is filed as in vivo, rats of wistar strain. Here is the method:
as §3, §4, §5, §6
(2) Estimation of the amount of antibodies by PHA reaction:
The collected serum was diluted in various concentrations and incubated with sheep red blood cells coupled with DNP-As using bis-diazoated benzydine to determine the dilution of the serum which induced the minimum hemaglutination. […]

Data set [4] is described as follows: Acute poisoning test on mice. The settings on record: mouse, in vivo, three weeks. Here is the method: (§7) Each of the test compounds was suspended in a physiological solution of sodium chloride containing 0.5% of tragacanth gum to obtain a test suspension. The test suspensions so obtained were administered to rats and mice in various ways. LD50 was calculated from test animals which died in three weeks after the start of the test.

The subject of data set [5] is IgG and IgM. The data set is described as follows: Amount of antibodies formed in mice, PHA reaction. Conditions: 100 mg/Kg/day for 5 days. The class given is in vivo, mice (BALB/c strain), female. As to the method:
The collected serum was diluted in various concentrations and incubated with sheep red blood cells coupled with DNP-As using bis-diazoated benzydine to determine the dilution of the serum which induced the minimum hemaglutination.
as §1, §2

Data set [6] can be described thus: Acute poisoning test on rats. The settings on record: rat, in vivo, three weeks. Here is the method:
as §7

Where [7] appears, read: Table 7, oral, serum 10 days after sensitization, control 537.0 (436.5-660.7).
[8] abbreviates: Table 8, hypodermic, serum 9 days after, control 708.0 (575.4-871.0).
The mark [9] stands for this setting: Table 8, hypodermic, serum 10 days after, control 537.0 (380.2-758.6).
The mark [10] stands for this setting: Table 8, hypodermic, serum 37 days after, control 2818.4 (1862.1-4265.8).
The mark [11] stands for this setting: Table 10, oral, serum 10 days after, control 125.9 (95.5-166.0).
The mark [12] stands for this setting: Table 11, hypodermic, serum 9 days after, control 380.2 (269.2-537.0).
Setting [13] is: Table 11, hypodermic, serum 10 days after, control 109.7 (95.5-125.9).
Where [14] appears, read: Table 11, hypodermic, serum 37 days after, control 1071.5 (871.0-1318.3).
The mark [15] stands for this setting: Table 3 left half, hypodermic administration, serum 8 days after sensitization, control 144.5 (117.5-177.8).
The mark [16] stands for this setting: Table 5 left half, hypodermic administration, serum 8 days after sensitization, control 1318.3 (933.3-1862.1).
Where [17] appears, read: Table 9, hypodermic, serum 37 days after, control 3467.37 (2013.72-3767.04).

Turning to `CC(C)COC1(CO)OCC(O)C(O)C1O` [Compound No. 10, isobutyl-α-L-sorbopyranoside], the “PCA of mice (serum dilution)” value turned out to be 501.2 in the data set on IgE antibodies [1] (setting [7]), 537.0 with IgE antibodies [1] (setting [8]), 708.0 in the data set on IgE antibodies [1] (setting [9]) and 1513.6 with IgE antibodies [1] (setting [10]). Besides, the “PCA of rat: dilution of the serum which induced the minimum extravasted dye” value (“PCA of rat” below) in the data set on IgE antibodies [2] (Table 3 right half, hypodermic administration, serum 8 days after sensitization, control 269.2 (218.8-331.1)) was 177.8 (134.9-234.4). For the same compound, the “PHA of rat: dilution of the serum which induced the minimum hemaglutination” value (from here on “PHA of rat”) in the data set with IgG and IgM [3] (Table 5 right half, hypodermic administration, serum 8 days after sensitization, control 3235.9 (2454.7-4265.8)) is listed as 5248.1 (3715.4-7413.1). Moreover, the LD50 at 504 h in data set [4] (ip, abdominally, female) lay within 500 to 1000 mg/kg; in data set [4] (ip, abdominally, male) it was 500 to 1000 mg/kg; in data set [4] (iv, intravenously, female), 1000 to 2000 mg/kg; in data set [4] (iv, intravenously, male), 1000 to 2000 mg/kg; in data set [4] (po, orally, female) it was 2000 to 5000 mg/kg; in data set [4] (po, orally, male) it was 2000 to 5000 mg/kg. Also, the LD50 at 504 h in data set [4] (sc, hypodermically, female) was about 2000 mg/kg; in data set [4] (sc, hypodermically, male), about 2000 mg/kg; in data set [6] (ip, abdominally, female) it was about 2000 mg/kg; in data set [6] (ip, abdominally, male), about 2000 mg/kg; in data set [6] (iv, intravenously, female), 1000 to 2000 mg/kg; in data set [6] (iv, intravenously, male), 1000 to 2000 mg/kg. Further, the LD50 at 504 h in data set [6] (po, orally, female) is over 5000 mg/kg; in data set [6] (po, orally, male), over 5000 mg/kg; in data set [6] (sc, hypodermically, female) it was over 5000 mg/kg; in data set [6] (sc, hypodermically, male), over 5000 mg/kg. Also, the “PHA of mice (serum dilution)” value in the data set on IgG and IgM [5] (setting [11]) is recorded as 109.7; in the data set on IgG and IgM [5] (setting [12]), 154.9 (125.9-190.6); in the data set with IgG and IgM [5] (setting [13]), 102.3 (83.2-125.9); with IgG and IgM [5] (setting [14]), 1148.2 (933.3-1412.5).
On to `CCCOC1(CO)OCC(O)C(O)C1O` [Compound No. 7, n-propyl-α-L-sorbopyranoside], for which the “PCA of mice (serum dilution)” value turned out to be 218.8 with IgE antibodies [1] (setting [7]), 660.7 in the data set with IgE antibodies [1] (setting [8]), 407.4 in the data set on IgE antibodies [1] (setting [9]) and 1995.3 in the data set on IgE antibodies [1] (setting [10]). For the same compound, the “PCA of rat” value in the data set on IgE antibodies [2] (setting [15]) came out at 67.6. The “PHA of rat” value in the data set on IgG and IgM [3] (setting [16]) came out at 5248.1. The LD50 at 504 h in data set [4] (ip, abdominally, male) was over 1000 mg/kg; in data set [4] (iv, intravenously, male) it was over 2000 mg/kg; in data set [4] (po, orally, male), over 5000 mg/kg; in data set [4] (sc, hypodermically, male), over 5000 mg/kg; in data set [6] (ip, abdominally, male), over 5000 mg/kg; in data set [6] (iv, intravenously, male), over 2000 mg/kg. Moreover, the LD50 at 504 h is over 5000 mg/kg in data set [6] (po, orally, male) and over 5000 mg/kg in data set [6] (sc, hypodermically, male). Moreover, the “PHA of mice (serum dilution)” value was 309.0 (251.2-380.2) with IgG and IgM [5] (setting [12]); 166.0 (134.9-204.2) in the data set on IgG and IgM [5] (setting [13]); 1000 (758.6-1318.3) in the data set on IgG and IgM [5] (setting [14]).
For `CCCCCOC1(CO)OCC(O)C(O)C1O` [Compound No. 4, n-pentyl-β-D-fructopyranoside], the “PCA of mice (serum dilution)” value was 88 ± 24 with IgE antibodies [1] (Table 6, oral, serum 10 days after sensitization, control 256 ± 128); 328 ± 108 in the data set on IgE antibodies [1] (Table 6, oral, serum 21 days after sensitization, control 1024 ± 0); 272 ± 80 in the data set with IgE antibodies [1] (Table 6, oral, serum 30 days after sensitization, control 299 ± 43); 177.83 in the data set on IgE antibodies [1] (setting [17]). Moreover, the “PCA of rat” value was 52.0 in the data set on IgE antibodies [2] (Table 2, abdominal and oral administration, 5 days, serum 8 days after sensitization, control 237 (169-337)); 51.9 in the data set on IgE antibodies [2] (Table 2, abdominal and oral administration, 5 days, serum 9 days after sensitization, control 169 (119-223)); 102.4 with IgE antibodies [2] (setting [15]). In addition, the “PHA of rat” value in the data set on IgG and IgM [3] (Table 4, oral administration, serum 8 days after the sensitization, control 320 (270-370)) amounted to 3250; in the data set on IgG and IgM [3] (setting [16]), 2454.7. Further, the LD50 at 504 h in data set [4] (ip, abdominally, female) was determined as 2360 mg/kg; in data set [4] (ip, abdominally, male) it was 2590 mg/kg; in data set [4] (iv, intravenously, female), 930 mg/kg; in data set [4] (iv, intravenously, male) it was 760 mg/kg; in data set [4] (po, orally, female), 3790 mg/kg; in data set [4] (po, orally, male), 3800 mg/kg. Further, the LD50 at 504 h in data set [4] (sc, hypodermically, female) is 1080 mg/kg; in data set [4] (sc, hypodermically, male) it was 1020 mg/kg; in data set [6] (ip, abdominally, female), over 2780 mg/kg; in data set [6] (ip, abdominally, male) it was over 2780 mg/kg; in data set [6] (iv, intravenously, female), 660 mg/kg; in data set [6] (iv, intravenously, male) it was 670 mg/kg. In addition, the LD50 at 504 h in data set [6] (po, orally, female) was over 4000 mg/kg; in data set [6] (po, orally, male) it was over 4000 mg/kg; in data set [6] (sc, hypodermically, female), 1300 mg/kg; in data set [6] (sc, hypodermically, male) it was 1500 mg/kg. Also, the “PHA of mice (serum dilution)” value in the data set with IgG and IgM [5] (Table 11, hypodermic, serum 9 days after, control 380.2 (269.2-537.0), 100 mg/kg/day) is 309.0 (251.2-380.2).
Regarding `CCCCOC1(CO)OCC(O)C(O)C1O` [Compound No. 9, n-butyl-α-L-sorbopyranoside], the “PCA of mice (serum dilution)” value in the data set on IgE antibodies [1] (setting [7]) was 380.2; with IgE antibodies [1] (setting [8]) it was 708.0; in the data set with IgE antibodies [1] (setting [9]), 218.8; in the data set with IgE antibodies [1] (setting [10]) it was 1513.6; with IgE antibodies [1] (setting [17]), 251.19. Further, the “PCA of rat” value in the data set with IgE antibodies [2] (setting [15]) worked out at 47.9. Further, the “PHA of rat” value with IgG and IgM [3] (setting [16]) was 5248.1. Further, the “PHA of mice (serum dilution)” value is 177.8 in the data set with IgG and IgM [5] (setting [11]); 288.4 (245.5-354.8) in the data set on IgG and IgM [5] (setting [12]); 102.3 (89.1-117.5) with IgG and IgM [5] (setting [13]); 871.0 (660.7-1148.2) in the data set with IgG and IgM [5] (setting [14]).
